The results in this text go back to patent US20050033021A1, “Chimeric Gatiphal 15 variants and their use in the analysis and discovery of modulators of G-protein coupled receptors” (priority 2003, published 2005).

The assay has as its target T1, rat T1 R1/T1 R3 umami taste receptor (Rattus norvegicus, UniProt Q923K1+Q9Z0R8).
T1 construct: expressed in transfected cells; host or cells: HEK-293, transient transfection, pEAK10 expression vector
T1 sequence (Q9Z0R8 20-840): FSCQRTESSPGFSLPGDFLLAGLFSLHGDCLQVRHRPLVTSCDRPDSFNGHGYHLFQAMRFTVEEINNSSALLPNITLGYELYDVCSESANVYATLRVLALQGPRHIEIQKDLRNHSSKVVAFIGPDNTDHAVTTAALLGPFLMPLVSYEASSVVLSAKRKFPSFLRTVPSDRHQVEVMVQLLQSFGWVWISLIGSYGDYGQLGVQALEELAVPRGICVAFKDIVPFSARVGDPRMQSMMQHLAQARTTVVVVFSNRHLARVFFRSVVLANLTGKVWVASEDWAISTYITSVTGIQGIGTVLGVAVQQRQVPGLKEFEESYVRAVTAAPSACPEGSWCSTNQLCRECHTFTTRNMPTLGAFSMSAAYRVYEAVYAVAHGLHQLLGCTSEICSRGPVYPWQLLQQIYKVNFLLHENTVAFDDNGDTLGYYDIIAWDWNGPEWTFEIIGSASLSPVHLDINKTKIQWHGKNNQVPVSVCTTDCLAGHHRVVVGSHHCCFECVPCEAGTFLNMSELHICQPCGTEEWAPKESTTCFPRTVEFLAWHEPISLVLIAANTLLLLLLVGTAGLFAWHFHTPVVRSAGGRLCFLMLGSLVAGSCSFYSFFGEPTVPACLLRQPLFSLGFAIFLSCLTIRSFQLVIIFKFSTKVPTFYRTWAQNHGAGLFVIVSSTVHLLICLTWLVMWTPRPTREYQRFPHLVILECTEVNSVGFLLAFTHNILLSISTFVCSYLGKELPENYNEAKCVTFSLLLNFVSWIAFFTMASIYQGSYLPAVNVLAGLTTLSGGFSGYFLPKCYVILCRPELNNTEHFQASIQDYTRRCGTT
T1 sequence (Q923K1 21-858): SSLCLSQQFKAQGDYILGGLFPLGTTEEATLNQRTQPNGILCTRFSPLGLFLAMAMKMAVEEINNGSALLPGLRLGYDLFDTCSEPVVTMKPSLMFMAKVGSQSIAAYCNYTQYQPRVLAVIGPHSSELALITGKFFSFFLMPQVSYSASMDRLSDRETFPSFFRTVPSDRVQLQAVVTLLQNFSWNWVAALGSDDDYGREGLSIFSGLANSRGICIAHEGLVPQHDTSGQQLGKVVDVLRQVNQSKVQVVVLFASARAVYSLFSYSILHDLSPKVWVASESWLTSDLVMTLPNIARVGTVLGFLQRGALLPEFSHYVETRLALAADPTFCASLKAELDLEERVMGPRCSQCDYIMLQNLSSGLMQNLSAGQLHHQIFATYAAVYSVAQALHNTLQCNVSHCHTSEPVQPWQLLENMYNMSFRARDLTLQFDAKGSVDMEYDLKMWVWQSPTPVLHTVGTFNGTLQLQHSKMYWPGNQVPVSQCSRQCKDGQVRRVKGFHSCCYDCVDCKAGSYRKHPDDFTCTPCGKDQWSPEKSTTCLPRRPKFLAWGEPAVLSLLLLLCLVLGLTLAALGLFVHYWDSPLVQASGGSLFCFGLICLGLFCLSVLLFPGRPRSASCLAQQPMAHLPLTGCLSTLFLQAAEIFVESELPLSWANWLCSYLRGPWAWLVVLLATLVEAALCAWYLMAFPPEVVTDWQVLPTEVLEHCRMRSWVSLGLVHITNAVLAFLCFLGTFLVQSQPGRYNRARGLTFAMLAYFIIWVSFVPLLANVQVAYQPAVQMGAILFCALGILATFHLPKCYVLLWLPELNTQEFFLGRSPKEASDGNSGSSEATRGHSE
The assay is described as follows: Calcium imaging of HEK-293 cells transiently transfected with rat T1R1, T1R3 and Ga15 or Ga15/i1. The note with it: HEK-293 with rat T1R1, T1R3 and Ga15/i1; in the presence of 2.5 mM IMP. In kind it is cell-based. An excerpt: Rat T1 R2 and T1 R3 expression constructs were generated using the pEAK10 expression vector (Edge Biosystems). (Rat T1 R1, T1 R2, and T1 R3 nucleic acid sequences are described in U.S. Provisional Application No. 60/339,472, incorporated by reference in its entirety herein). […] Calcium mobilization was monitored on an Axiovert S100 microscope equipped with an inverted 10X/0.5 LWID piano fluor objective (Zeiss) and a cooled CCID camera (Princeton Instruments). Fluorescence images were acquired at 480 nrn excitation and 535 nm emission, and analyzed with Imaging Workbench 4.0 software (Axon Instruments). T1 R receptor activity was quantitated by counting the number of responding cells 30 seconds after stimulus addition. […]

`N[C@@H](CCC(=O)O)C(=O)O` [L-glutamate]: the “cell response (intracellular calcium) to umami taste stimuli” value is listed as “responded”.
Next, `N[C@@H](CC(=O)O)C(=O)O` [L-aspartate]: “responded”.
